# Measurements reported in US12404244B2, “Pan-KIT kinase inhibitor having quinoline structure and application thereof” (Tarapeutics Science Inc., priority 2018, dated 2025).
# Read-outs that look alike come from different tables or passages of the source.
# Legend:
# [1] = tested on: TEL-KIT/Y823D-BaF3; assay: Proliferation of TEL-KIT/Y823D-BaF3 cells (CCK-8); assay type: cell-based; conditions: Mus musculus, read-out: GI50 TEL-KIT/Y823D-BaF3
# Description: (§1) Compounds as provided herein were further evaluated for their inhibitory effects on proliferation of cancer cells by testing their effects on growth of cancer cells. In this example the following cells were used: primary mouse B cells BaF3 (purchased from ATCC), GIST-T1 cells of the human gastrointestinal stromal tumor cell line (expressing wild-type KIT gene) (purchased from Cosmo Bio Co., Ltd. (Japan)). The present lab further constructed and used the following: mouse Tel-Kit-BaF3 (stably expressing KIT wild-type kinase), mouse Tel-Kit/T670I-BaF3 (stably expressing KIT T670I mutant kinase), mouse Tel-Kit/V559A-BaF3 (stably expressing KIT V559A mutant kinase), mouse Tel-Kit/V559D-BaF3 (stably expressing KIT V559D mutant kinase), mouse Tel-Kit/V559G-BaF3 (stably expressing KIT V559G mutant kinase), mouse Tel-Kit/V560D-BaF3 (stably expressing KIT V560D mutant kinase), mouse Tel-Kit/L576P-BaF3 (stably expressing KIT L576P mutant kinase), mouse Tel-Kit/V654A-BaF3 (stably expressing KIT V654A mutant kinase), mouse Tel-Kit/V654A/V559D-BaF3 (stably expressing KIT V654A V559D mutant kinase), mouse Tel-Kit/T670E-BaF3 (stably expressing KIT T670E mutant kinase), mouse Tel-Kit/T670I/V559D-BaF3 (stably expressing KIT T670I V559D mutant kinase), mouse Tel-Kit/S709F-BaF3 (stably expressing KIT S709F mutant kinase), mouse Tel-Kit/D816E-BaF3 (stably expressing KIT D816E mutant kinase), mouse Tel-Kit/D816H-BaF3 (stably expressing KIT D816H mutant kinase), mouse Tel-Kit/D820E-BaF3 (stably expressing KIT D820E mutant kinase), mouse Tel-Kit/D820G-BaF3 (stably expressing KIT D820G mutant kinase), mouse Tel-Kit/D820Y-BaF3 (stably expressing KIT D820Y mutant kinase), mouse Tel-Kit/N822K-BaF3 (stably expressing KIT N822K mutant kinase), mouse Tel-Kit/Y823D-BaF3 (stably expressing KIT Y823D mutant kinase), mouse Tel-Kit/A829P-BaF3 (stably expressing KIT A829P mutant kinase), GIST-T1-T670I cells of the human gastrointestinal stromal tumor cell line (expressing KIT-T670I mutant gene). The above cell lines were constructed by: amplifying respectively the sequences of human KIT and various mutant kinase regions of KIT via PCR, inserting the fragments respectively into MSCV-Puro vectors having a N-terminal TEL fragment and/or a NPM fragment and/or a TPR fragment (purchased from Clontech), transfecting mouse BaF3 cells with the vectors by means of retrovirus to obtain stably transfected cells, removing the growth factor IL-3, and thereby eventually obtaining cell lines that depend on the transferred protein KIT or various mutants of KIT. […]
# [2] = tested on: TEL-KIT/A829P-BaF3; assay: Proliferation of TEL-KIT/A829P-BaF3 cells (CCK-8); assay type: cell-based; conditions: Mus musculus, read-out: GI50 TEL-KIT/A829P-BaF3
# Description: as §1
# [3] = tested on: TEL-KIT/V559A-BaF3; assay: Proliferation of TEL-KIT/V559A-BaF3 cells (CCK-8); assay type: cell-based; conditions: Mus musculus, read-out: GI50 TEL-KIT/V559A-BaF3
# Description: as §1
# [4] = tested on: TEL-KIT/T670I-BaF3; assay: Proliferation of TEL-KIT/T670I-BaF3 cells (CCK-8); assay type: cell-based, mouse; conditions: Mus musculus, read-out: GI50 TEL-KIT/T670I-BaF3
# Description: Compounds as provided herein were further evaluated for their inhibitory effects on proliferation of cancer cells by testing their effects on growth of cancer cells. In this example the following cells were used: primary mouse B cells BaF3 (purchased from ATCC), GIST-T1 cells of the human gastrointestinal stromal tumor cell line (expressing wild-type KIT gene) (purchased from Cosmo Bio Co., Ltd. (Japan)). The present lab further constructed and used the following: mouse Tel-Kit-BaF3 (stably expressing KIT wild-type kinase), mouse Tel-Kit/T670I-BaF3 (stably expressing KIT T670I mutant kinase), mouse Tel-Kit/V559A-BaF3 (stably expressing KIT V559A mutant kinase), mouse Tel-Kit/V559D-BaF3 (stably expressing KIT V559D mutant kinase), mouse Tel-Kit/V559G-BaF3 (stably expressing KIT V559G mutant kinase), mouse Tel-Kit/V560D-BaF3 (stably expressing KIT V560D mutant kinase), mouse Tel-Kit/L576P-BaF3 (stably expressing KIT L576P mutant kinase), mouse Tel-Kit/V654A-BaF3 (stably expressing KIT V654A mutant kinase), mouse Tel-Kit/V654A/V559D-BaF3 (stably expressing KIT V654A V559D mutant kinase), mouse Tel-Kit/T670E-BaF3 (stably expressing KIT T670E mutant kinase), mouse Tel-Kit/T670I/V559D-BaF3 (stably expressing KIT T670I V559D mutant kinase), mouse Tel-Kit/S709F-BaF3 (stably expressing KIT S709F mutant kinase), mouse Tel-Kit/D816E-BaF3 (stably expressing KIT D816E mutant kinase), mouse Tel-Kit/D816H-BaF3 (stably expressing KIT D816H mutant kinase), mouse Tel-Kit/D820E-BaF3 (stably expressing KIT D820E mutant kinase), mouse Tel-Kit/D820G-BaF3 (stably expressing KIT D820G mutant kinase), mouse Tel-Kit/D820Y-BaF3 (stably expressing KIT D820Y mutant kinase), mouse Tel-Kit/N822K-BaF3 (stably expressing KIT N822K mutant kinase), mouse Tel-Kit/Y823D-BaF3 (stably expressing KIT Y823D mutant kinase), mouse Tel-Kit/A829P-BaF3 (stably expressing KIT A829P mutant kinase), GIST-T1-T670I cells of the human gastrointestinal stromal tumor cell line (expressing KIT-T670I mutant gene). The above cell lines were constructed by: amplifying respectively the sequences of human KIT and various mutant kinase regions of KIT via PCR, inserting the fragments respectively into MSCV-Puro vectors having a N-terminal TEL fragment and/or a NPM fragment and/or a TPR fragment (purchased from Clontech), transfecting mouse BaF3 cells with the vectors by means of retrovirus to obtain stably transfected cells, removing the growth factor IL-3, and thereby eventually obtaining cell lines that depend on the transferred protein KIT or various mutants of KIT. The GIST-T1-T670I (expressing C-KIT-T670I mutant gene) cell line was constructed by our laboratory as follows: designing sgRNA that targeted a region around T670 of the KIT gene with CRISPR Design Tool (website: crispr.mit.edu, Zhang Feng Lab), cloning it into pSpCas9(BB)-2A-Puro vector; co-transfecting cells with the resultant vector and a single-stranded oligonucleotide having T670I site mutation that is near to T670, subjecting the resultant to antibiotics screening, followed by dilution, and monocellular culture in a 96-well plate; validating the site T670 of the cells by sequence detection via Sanger sequencing.
# [5] = tested on: TEL-KIT/D816E-BaF3; assay: Proliferation of TEL-KIT/D816E-BaF3 cells (CCK-8); assay type: cell-based; conditions: Mus musculus, read-out: GI50 TEL-KIT/D816E-BaF3
# Description: as §1
# [6] = tested on: GIST-T1; assay: Proliferation of GIST-T1 cells (CCK-8); assay type: cell-based; conditions: Homo sapiens, read-out: GI50 GIST-T1
# Description: as §1, with “gene).” for “gene). The above cell lines were constructed by: amplifying respectively the sequences of human KIT and various mutant kinase regions of KIT via PCR, inserting the fragments respectively into MSCV-Puro vectors having a N-terminal TEL fragment and/or a NPM fragment and/or a TPR fragment (purchased from Clontech), transfecting mouse BaF3 cells with the vectors by means of retrovirus to obtain stably transfected cells, removing the growth factor IL-3, and thereby eventually obtaining cell lines that depend on the transferred protein KIT or various mutants of KIT.”
# The cells after incubation were detected using CCK-8 (purchased from MedChem Express, Shanghai, China) cell viability assay kit (CCK-8 may be reduced by dehydrogenase in living cells to a highly water-soluble yellow formazan product, and the amount of the resultant formazan is proportional to the number of living cells), the number of living cells were quantified with a microplate reader, and GI50 of the compounds and the control compounds were calculated (the results shown in Table 2 and Table 3).
# [7] = tested on: TEL-KIT/T670I/V559D-BaF3; assay: Proliferation of TEL-KIT/T670I/V559D-BaF3 cells (CCK-8); assay type: cell-based; conditions: Mus musculus, read-out: GI50 TEL-KIT/T670I/V559D-BaF3
# Description: as §1
# [8] = tested on: TEL-KIT/D820G-BaF3; assay: Proliferation of TEL-KIT/D820G-BaF3 cells (CCK-8); assay type: cell-based; conditions: Mus musculus, read-out: GI50 TEL-KIT/D820G-BaF3
# Description: as §1
# [9] = tested on: TEL-KIT/D820E-BaF3; assay: Proliferation of TEL-KIT/D820E-BaF3 cells (CCK-8); assay type: cell-based; conditions: Mus musculus, read-out: GI50 TEL-KIT/D820E-BaF3
# Description: as §1
# [10] = tested on: TEL-KIT/T670E-BaF3; assay: Proliferation of TEL-KIT/T670E-BaF3 cells (CCK-8); assay type: cell-based; conditions: Mus musculus, read-out: GI50 TEL-KIT/T670E-BaF3
# Description: as §1
# [11] = tested on: TEL-KIT/S709F-BaF3; assay: Proliferation of TEL-KIT/S709F-BaF3 cells (CCK-8); assay type: cell-based; conditions: Mus musculus, read-out: GI50 TEL-KIT/S709F-BaF3
# Description: as §1
# [12] = tested on: TEL-KIT/V654A/V559D-BaF3; assay: Proliferation of TEL-KIT/V654A/V559D-BaF3 cells (CCK-8); assay type: cell-based; conditions: Mus musculus, read-out: GI50 TEL-KIT/V654A/V559D-BaF3
# Description: as §1
# [13] = tested on: TEL-KIT/D820Y-BaF3; assay: Proliferation of TEL-KIT/D820Y-BaF3 cells (CCK-8); assay type: cell-based; conditions: Mus musculus, read-out: GI50 TEL-KIT/D820Y-BaF3
# Description: as §1
# [14] = tested on: TEL-KIT/D816H-BaF3; assay: Proliferation of TEL-KIT/D816H-BaF3 cells (CCK-8); assay type: cell-based; conditions: Mus musculus, read-out: GI50 TEL-KIT/D816H-BaF3
# Description: as §1
SMILES,"GI50 ([1]; 72 hours, CCK-8)","GI50 ([2]; 72 hours, CCK-8)","GI50 ([3]; 72 hours, CCK-8)","GI50 ([4]; 72 hours, CCK-8)","GI50 ([5]; 72 hours, CCK-8)","GI50 ([6]; GISTT1, 72 hours, CCK-8)","GI50 ([7]; 72 hours, CCK-8)","GI50 ([8]; 72 hours, CCK-8)","GI50 ([9]; 72 hours, CCK-8)","GI50 ([10]; 72 hours, CCK-8)","GI50 ([11]; 72 hours, CCK-8)","GI50 ([12]; 72 hours, CCK-8)","GI50 ([13]; 72 hours, CCK-8)","GI50 ([14]; 72 hours, CCK-8)",also measured
"COc1cc2nccc(Oc3ccc(NC(=O)Cc4ccc(C)c(C(F)(F)F)c4)cc3)c2cc1OC [Example 1, N-(4-((6,7-dimethoxyquinolin-4-yl)oxy)phenyl)-2-(4-methyl-3-(trifluoromethyl)phenyl)acetamide]",–,–,–,–,–,–,–,–,–,–,–,–,–,–,"GI50 ([1]; 72 h): 15 nM; GI50 ([2]; 72 h): 8 nM; GI50 ([3]; 72 h): 16 nM; GI50 ([4]; 72 h): 14 nM; GI50 ([5]; 72 h): 9 nM; GI50 ([6]; GISTT1, 72 h): 5 nM; GI50 ([7]; 72 h): 48 nM; GI50 ([8]; 72 h): 9 nM; GI50 ([9]; 72 h): 5 nM; GI50 ([10]; 72 h): 53 nM; GI50 ([11]; 72 h): 11 nM; GI50 ([12]; 72 h): 39 nM; GI50 ([13]; 72 h): 6 nM; GI50 ([14]; 72 h): 58 nM"
"COc1cc2nccc(Oc3ccc(NC(=O)Cc4ccc(Cl)c(C(F)(F)F)c4)cc3)c2cc1OC [Example 2, N-(4-((6,7-dimethoxyquinolin-4-yl)oxy)phenyl)-2-(4-chloro-3-(trifluoromethyl)phenyl)-acetamide]",35 nM,22 nM,21 nM,4 nM,16 nM,6 nM,45 nM,9 nM,1 nM,71 nM,17 nM,42 nM,3 nM,97 nM,–
"CCN(CC)CCNC(=O)c1c(C)[nH]c(/C=C2\C(=O)Nc3ccc(F)cc32)c1C [Sunitinib, reference compound]",704 nM,180 nM,20 nM,21 nM,59 nM,11 nM,12 nM,389 nM,93 nM,89 nM,28 nM,19 nM,172 nM,315 nM,–
